# Experiment: LNP size and polydispersity index (PDI) by dynamic light scattering (DLS)
# Type: physicochemical
# Details: Table 5; LNP 50:10:38.5:1.5 mol %; hEPO mRNA; N:P 6
row,Structure (SMILES),PDI
1,CCCCCCCC(CCCCCCC)C(=O)OCCN(CCOC(=O)C(CCCCCCC)CCCCCCC)C(=O)C(N)Cc1ccccc1 (centres unmarked) [Compound 618],0.304
2,CCCCCCCCCCC(CCCC)C(=O)OCCN(CCOC(=O)C(CCCC)CCCCCCCCCC)C(=O)C(N)Cc1ccccc1 (centres unmarked) [Compound 619],0.183
3,CCCCCCCCCC(CCCCCCCCC)C(=O)OCCN(CCOC(=O)C(CCCCCCCCC)CCCCCCCCC)C(=O)C(N)Cc1ccccc1 (centres unmarked) [Compound 621],0.332

# The remaining lines, values ahead:
row,PDI,Structure (SMILES)
1,0.32,CCCCCCCCC(CC)C(=O)OCCN(CCOC(=O)C(CC)CCCCCCCC)C(=O)C(N)Cc1ccccc1 (centres unmarked) [Compound 617]
2,0.23,CCCCCCCCCCCCC(CC)C(=O)OCCN(CCOC(=O)C(CC)CCCCCCCCCCCC)C(=O)C(N)Cc1ccccc1 (centres unmarked) [Compound 620]

# Same assay, conditions: Table 5; LNP 60:0:38.5:1.5 mol %; hEPO mRNA; N:P 6
PDI,Size,Structure (SMILES)
0.116,211.9 nm,CCCCCCCC(CCCCCCC)C(=O)OCCN(CCOC(=O)C(CCCCCCC)CCCCCCC)C(=O)C(N)Cc1ccccc1 (centres unmarked) [Compound 618]

# Same assay, conditions: Table 5; LNP Lipid:DSPC:Cholesterol:DMG-PEG2k 50:10:38.5:1.5 mol %; hEPO mRNA; N:P 6
row,Structure (SMILES),Size
1,CCCCCCCC(CCCCCCC)C(=O)OCCN(CCOC(=O)C(CCCCCCC)CCCCCCC)C(=O)C(N)Cc1ccccc1 (centres unmarked) [Compound 618],53.9 nm
2,CCCCCCCCCCC(CCCC)C(=O)OCCN(CCOC(=O)C(CCCC)CCCCCCCCCC)C(=O)C(N)Cc1ccccc1 (centres unmarked) [Compound 619],60.7 nm
3,CCCCCCCCCC(CCCCCCCCC)C(=O)OCCN(CCOC(=O)C(CCCCCCCCC)CCCCCCCCC)C(=O)C(N)Cc1ccccc1 (centres unmarked) [Compound 621],49.4 nm

# The remaining lines, values ahead:
row,Size,Structure (SMILES)
1,63.7 nm,CCCCCCCCC(CC)C(=O)OCCN(CCOC(=O)C(CC)CCCCCCCC)C(=O)C(N)Cc1ccccc1 (centres unmarked) [Compound 617]
2,56.7 nm,CCCCCCCCCCCCC(CC)C(=O)OCCN(CCOC(=O)C(CC)CCCCCCCCCCCC)C(=O)C(N)Cc1ccccc1 (centres unmarked) [Compound 620]

# Same assay, conditions: Table 6; LNP 50:10:38.5:1.5 mol %; hEPO mRNA; N:P 6
row,PDI,Structure (SMILES)
1,0.436,CCCCCCCCC(CCCCCC)C(=O)OCCN(CCOC(=O)C(CCCCCC)CCCCCCCC)C(=O)CCN (centres unmarked) [Compound 801]

# Same assay, conditions: Table 6; LNP 60:0:38.5:1.5 mol %; hEPO mRNA; N:P 6
PDI,Size,Structure (SMILES)
0.169,93.6 nm,CCCCCCCCC(CCCCCC)C(=O)OCCN(CCOC(=O)C(CCCCCC)CCCCCCCC)C(=O)CCN (centres unmarked) [Compound 801]

# Same assay, conditions: Table 6; LNP lipid:DSPC:Cholesterol:DMG-PEG2k 50:10:38.5:1.5 mol %; hEPO mRNA; N:P 6
row,Size,Structure (SMILES)
1,105.8 nm,CCCCCCCCC(CCCCCC)C(=O)OCCN(CCOC(=O)C(CCCCCC)CCCCCCCC)C(=O)CCN (centres unmarked) [Compound 801]

# Experiment: LNP Zeta potential measured using a Zetasizer (Malvern)
# Type: physicochemical
# Details: Table 5; LNP 50:10:38.5:1.5 mol %; hEPO mRNA; N:P 6
row,Structure (SMILES),Zeta potential
1,CCCCCCCC(CCCCCCC)C(=O)OCCN(CCOC(=O)C(CCCCCCC)CCCCCCC)C(=O)C(N)Cc1ccccc1 (centres unmarked) [Compound 618],−13.69 mV
2,CCCCCCCCCCC(CCCC)C(=O)OCCN(CCOC(=O)C(CCCC)CCCCCCCCCC)C(=O)C(N)Cc1ccccc1 (centres unmarked) [Compound 619],−11.63 mV
3,CCCCCCCCCC(CCCCCCCCC)C(=O)OCCN(CCOC(=O)C(CCCCCCCCC)CCCCCCCCC)C(=O)C(N)Cc1ccccc1 (centres unmarked) [Compound 621],−10.9 mV

# Other lines, results leading:
row,Zeta potential,Structure (SMILES)
1,−5.824 mV,CCCCCCCCC(CC)C(=O)OCCN(CCOC(=O)C(CC)CCCCCCCC)C(=O)C(N)Cc1ccccc1 (centres unmarked) [Compound 617]
2,−5.044 mV,CCCCCCCCCCCCC(CC)C(=O)OCCN(CCOC(=O)C(CC)CCCCCCCCCCCC)C(=O)C(N)Cc1ccccc1 (centres unmarked) [Compound 620]

# Same assay, conditions: Table 5; LNP 60:0:38.5:1.5 mol %; hEPO mRNA; N:P 6
row,Zeta potential,Structure (SMILES)
1,−17.91 mV,CCCCCCCC(CCCCCCC)C(=O)OCCN(CCOC(=O)C(CCCCCCC)CCCCCCC)C(=O)C(N)Cc1ccccc1 (centres unmarked) [Compound 618]

# Same assay, conditions: Table 6; LNP 50:10:38.5:1.5 mol %; hEPO mRNA; N:P 6
row,Zeta potential,Structure (SMILES)
1,−1.5 mV,CCCCCCCCC(CCCCCC)C(=O)OCCN(CCOC(=O)C(CCCCCC)CCCCCCCC)C(=O)CCN (centres unmarked) [Compound 801]

# Same assay, conditions: Table 6; LNP 60:0:38.5:1.5 mol %; hEPO mRNA; N:P 6
row,Zeta potential,Structure (SMILES)
1,1.6 mV,CCCCCCCCC(CCCCCC)C(=O)OCCN(CCOC(=O)C(CCCCCC)CCCCCCCC)C(=O)CCN (centres unmarked) [Compound 801]

# Experiment: Encapsulation efficiency (EE %) by fluorescence based Ribogreen assay
# Type: physicochemical
# Details: Table 5; LNP 50:10:38.5:1.5 mol %; hEPO mRNA; N:P 6
row,Structure (SMILES),Encapsulation Efficiency %
1,CCCCCCCC(CCCCCCC)C(=O)OCCN(CCOC(=O)C(CCCCCCC)CCCCCCC)C(=O)C(N)Cc1ccccc1 (centres unmarked) [Compound 618],97.9%
2,CCCCCCCCCCC(CCCC)C(=O)OCCN(CCOC(=O)C(CCCC)CCCCCCCCCC)C(=O)C(N)Cc1ccccc1 (centres unmarked) [Compound 619],98.1%
3,CCCCCCCCCC(CCCCCCCCC)C(=O)OCCN(CCOC(=O)C(CCCCCCCCC)CCCCCCCCC)C(=O)C(N)Cc1ccccc1 (centres unmarked) [Compound 621],98.9%

# Further lines, results first:
row,Encapsulation Efficiency %,Structure (SMILES)
1,99.1%,CCCCCCCCC(CC)C(=O)OCCN(CCOC(=O)C(CC)CCCCCCCC)C(=O)C(N)Cc1ccccc1 (centres unmarked) [Compound 617]
2,99%,CCCCCCCCCCCCC(CC)C(=O)OCCN(CCOC(=O)C(CC)CCCCCCCCCCCC)C(=O)C(N)Cc1ccccc1 (centres unmarked) [Compound 620]

# Same assay, conditions: Table 5; LNP 60:0:38.5:1.5 mol %; hEPO mRNA; N:P 6
row,Encapsulation Efficiency %,Structure (SMILES)
1,92.8%,CCCCCCCC(CCCCCCC)C(=O)OCCN(CCOC(=O)C(CCCCCCC)CCCCCCC)C(=O)C(N)Cc1ccccc1 (centres unmarked) [Compound 618]

# Same assay, conditions: Table 6; LNP 50:10:38.5:1.5 mol %; hEPO mRNA; N:P 6
row,Encapsulation Efficiency %,Structure (SMILES)
1,98.5%,CCCCCCCCC(CCCCCC)C(=O)OCCN(CCOC(=O)C(CCCCCC)CCCCCCCC)C(=O)CCN (centres unmarked) [Compound 801]

# Same assay, conditions: Table 6; LNP 60:0:38.5:1.5 mol %; hEPO mRNA; N:P 6
row,Encapsulation Efficiency %,Structure (SMILES)
1,98.4%,CCCCCCCCC(CCCCCC)C(=O)OCCN(CCOC(=O)C(CCCCCC)CCCCCCCC)C(=O)CCN (centres unmarked) [Compound 801]

# Source: patent publication US20250268826A1, “IONIZABLE LIPIDOID COMPOSITIONS AND THERAPEUTIC USES THEREOF” (Flagship Pioneering Innovations VII, LLC, priority 2023, published 2025)
